Like-named read-outs stand apart in the source and are kept apart here.
Columns and labels:
[1] = Cytotoxicity in HCV replicon assay (ΔCt rRNA); type: cell-based; settings: human, HCV Replicon (Huh7)
Experimental: (§1) Huh 7 Clone B cells containing HCV Replicon RNA were seeded in a 96-well plate at 5000 cells/well, and the compounds tested at 10 μM in triplicate immediately after seeding. Following five days incubation (37° C., 5% CO2), total cellular RNA was isolated using the versaGene RNA purification kit from Gentra. Replicon RNA and an internal control (TaqMan rRNA control reagents, Applied Biosystems) were amplified in a single step multiplex Real Time RT-PCR Assay. The antiviral effectiveness of the compounds was calculated by subtracting the threshold RT-PCR cycle of the test compound from the threshold RT-PCR cycle of the no-drug control (ΔCt HCV). A ΔCt of 3.3 equals a 1-log reduction (equal to 90% less starting material) in Replicon RNA levels. The cytotoxicity of the compounds was also calculated using the ΔCt rRNA values. (2′-C-Me-C) was used as the control. To determine EC90 and IC50 values^2, ΔCt: values were first converted into a fraction of the starting material,^3 and then were used to calculate the % inhibition. The data on three compounds (Compound 12, Compound 8a, and compound 8b-up) is shown below in Table 3.

[2] = test system: HCV Replicon RNA in Huh 7 Clone B cells; test: HCV replicon assay; type: cell-based; settings: Hepatitis C virus
Experimental: as §1

[3] = test system: nuclear DNA, HepG2 Hepatoma cells; test: Mitochondrial toxicity in HepG2 cells: nuclear DNA content; type: cell-based
Experimental: This assay was used in all studies described in this application that determine the effect of nucleoside analogs on mitochondrial DNA content. In this assay, low-passage-number HepG2 cells were seeded at 5,000 cells/well in collagen-coated 96-well plates. […] On culture day 7, cellular nucleic acids were prepared by using commercially available columns (RNeasy 96 kit; Qiagen). […] The mitochondrial cytochrome c oxidase subunit II (COXII) gene and the β-actin or rRNA gene were amplified from 5 μl of the eluted nucleic acids using a multiplex Q-PCR protocol with suitable primers and probes for both target and reference amplifications. […] For exon 3 of the β-actin gene (GenBank accession number E01094) the sense, probe, and antisense primers are 5′-[…]-3′,5′-6-[…]-3′ and 5′-[…]-3′, respectively. The primers and probes for the rRNA gene are commercially available from Applied Biosystems. […] The comparative CT method uses arithmetic formulas in which the amount of target (COXII gene) is normalized to the amount of an endogenous reference (the β-actin or rRNA gene) and is relative to a calibrator (a control with no drug at day 7). The arithmetic formula for this approach is given by 2-ΔΔCT, where ΔΔCT is (CT for average target test sample−CT for target control)−(CT for average reference test−CT for reference control) (see Johnson M R, K Wang, J B Smith, M J Heslin, R B Diasio. Quantitation of dihydropyrimidine dehydrogenase expression by real-time reverse transcription polymerase chain reaction. Anal. Biochem. 2000; 278:175-184). A decrease in mitochondrial DNA content in cells grown in the presence of drug would indicate mitochondrial toxicity.
(§2) The effect of compounds 8b-up, 12, and 8a on nuclear or mitochondrial DNA, or lactic acid production, in HepG2 Hepatoma cells was analyzed over a 14 day period. The procedure outlined in section (i) above was used for this analysis.

[4] = test system: MtDNA, HepG2 Hepatoma cells; test: Mitochondrial toxicity in HepG2 cells: mitochondrial DNA content; type: cell-based
Excerpt: A real-time PCR assay to accurately quantify mitochondrial DNA content has been developed (see Stuyver L J, Lostia S, Adams M, Mathew J S, Pai B S, Grier J, Tharnish P M, Choi Y, Chong Y, Choo H, Chu C K, Otto M J, Schinazi R F. Antiviral activities and cellular toxicities of modified 2′,3′-dideoxy-2′,3′-didehydrocytidine analogs. Antimicrob. Agents Chemother. 2002; 46: 3854-60). This assay was used in all studies described in this application that determine the effect of nucleoside analogs on mitochondrial DNA content. In this assay, low-passage-number HepG2 cells were seeded at 5,000 cells/well in collagen-coated 96-well plates. Nucleoside monophosphate analogs were added to the medium to obtain final concentrations of 0 μM, 0.1 μM, 10 μM and 100 μM. On culture day 7, cellular nucleic acids were prepared by using commercially available columns (RNeasy 96 kit; Qiagen). […] The mitochondrial cytochrome c oxidase subunit II (COXII) gene and the β-actin or rRNA gene were amplified from 5 μl of the eluted nucleic acids using a multiplex Q-PCR protocol with suitable primers and probes for both target and reference amplifications. For COXII the following sense, probe and antisense primers are used, respectively: 5′-[…]-3′,5′-tetrachloro-6-carboxyfluorescein-[…]-TAMRA-3′ and 5′-[…]-3′. For exon 3 of the β-actin gene (GenBank accession number E01094) the sense, probe, and antisense primers are 5′-[…]-3′,5′-6-[…]-3′ and 5′-[…]-3′, respectively. The primers and probes for the rRNA gene are commercially available from Applied Biosystems. Since equal amplification efficiencies were obtained for all genes, the comparative CT method was used to investigate potential inhibition of mitochondrial DNA synthesis. The comparative CT method uses arithmetic formulas in which the amount of target (COXII gene) is normalized to the amount of an endogenous reference (the β-actin or rRNA gene) and is relative to a calibrator (a control with no drug at day 7). The arithmetic formula for this approach is given by 2-ΔΔCT, where ΔΔCT is (CT for average target test sample−CT for target control)−(CT for average reference test−CT for reference control) (see Johnson M R, K Wang, J B Smith, M J Heslin, R B Diasio. Quantitation of dihydropyrimidine dehydrogenase expression by real-time reverse transcription polymerase chain reaction. Anal. Biochem. 2000; 278:175-184). A decrease in mitochondrial DNA content in cells grown in the presence of drug would indicate mitochondrial toxicity.
as §2

[5] = test system: Huh7 cells; test: Cellular pharmacology in Huh7 cells (LC/MS of nucleotides formed); type: in vitro ADME; settings: 50 μM, 4 hr
Experimental: Similar to the method outlined for HepG2 cellular pharmacology, compounds are incubated in Huh-7 cells for 4 hr at the concentration of 50 μM in triplicate. […] Ice-cold 70% methanol can be used as the extraction solvent. ddATP (10 nM) can be used as the internal standard.

[6] = test system: PBM cells; test: Cellular pharmacology in PBM cells (LC-MS/MS of intracellular metabolites); type: in vitro ADME; settings: 50 μM, 4 h, 37° C.
Experimental: Test compounds are incubated in PBM cells at 50 μM for 4 h at 37° C. Then the drug containing media is removed and the PBM cells are washed twice with PBS to remove extracellular drugs. The intracellular drugs are extracted from 10×10^6 PBM cells using 1 mL 70% ice-cold methanol (containing 10 nM of the internal standard ddATP). Following precipitation, the samples are maintained at room temperature for 15 min followed by vortexing for 30 sec, and then stored 12 h at −20° C. The supernatant is then evaporated to dryness. Dry samples would be stored at −20° C. until LC-MS/MS analysis. Prior to analysis, each sample is reconstituted in 100 μL mobile phase A, and centrifuged at 20,000 g to remove insoluble particulates.
Gradient separation is performed on a Hypersil GOLD column (100×1.0 mm, 3 μm particle size; Thermo Scientific, Waltham, Mass., USA). Mobile phase A consists of 2 mM ammonium phosphate and 3 mM hexylamine. Acetonitrile is increased from 10 to 80% in 15 min, and kept at 80% for 3 min. Equilibration at 10% acetonitrile lasts 15 min. The total run time is 33 min. The flow rate is maintained at 50 μL/min and a 10 μL injection is used. The autosampler and the column compartment are typically maintained at 4.5 and 30° C., respectively.
The first 3.5 min of the analysis is diverted to waste. The mass spectrometer is operated in positive ionization mode with a spray voltage of 3.2 kV.

[7] = Huh 7 Clone B cells containing HCV replicon RNA
[8] = Huh-7, 120 h, HCV Replicon (Huh7), five days incubation, read-out: EC50
[9] = 1 μM, HepG2 Hepatoma cells, 14 day assay
[10] = 10 μM, HepG2 Hepatoma cells, 14 day assay
[11] = 50 μM, HepG2 Hepatoma cells, 14 day assay

## CC(C)OC(=O)CCNC(=O)[C@@H]1OP(=O)(OC[C@H]2O[C@@H](n3cnc4c(N)nc(N)nc43)C(C)(O)C2O)OCC1(C)C (stereo partly drawn)
[1]; [7]
  CC50 at 5 day: > 10 µM
[2]; [8]
  EC50: > 10000 nM
[2]; Huh-7, HCV Replicon (Huh7), second line printed as EC50 in the entry, read-out: EC50
  EC50: > 10000 nM

## CCOC(=O)CCc1ccccc1OP(=O)(N[C@H](C)C(=O)OCC)OC[C@H]1O[C@@H](n2cnc3c(N)nc(N)nc32)C(C)(O)C1O (stereo partly drawn) [drawing 49]
[3]; [9]
  % Inhibition nuclear DNA: 30%
[3]; [10]
  % Inhibition nuclear DNA: 16%
[3]; [11]
  % Inhibition nuclear DNA: 10%
[4]; [9]
  % Inhibition MtDNA: 24%
[4]; [10]
  % Inhibition MtDNA: 34%
[4]; [11]
  % Inhibition MtDNA: 43%

## CCOC(=O)[C@H](C)NP(=O)(OC[C@H]1O[C@@H](n2cnc3c(N)nc(N)nc32)C(C)(O)C1O)Oc1ccccc1 (stereo partly drawn) [drawing 51]
[3]; [9]
  % Inhibition nuclear DNA: 4.0%
[3]; [10]
  % Inhibition nuclear DNA: 20%
[3]; [11]
  % Inhibition nuclear DNA: < 1%
[4]; [9]
  % Inhibition MtDNA: < 1%
[4]; [10]
  % Inhibition MtDNA: 5.4%
[4]; [11]
  % Inhibition MtDNA: < 1%

## CC1(O)C(O)[C@@H](CO)O[C@H]1n1cnc2c(N)nc(N)nc21 (stereo partly drawn) [Compound 12, 2,6-diamino-2′-C-Me purine nucleoside]
[5]
  intracellular guanine analog triphosphate: major triphosphate detected
  intracellular level of 2,6-diamino-2′-C-Me purine triphosphate: extremely low levels

## CCOC(=O)[C@H](C)NP(=O)(OC[C@@H]1OC[C@H](n2cnc3c(N)nc(N)nc32)O1)Oc1ccccc1 (stereo partly drawn) [RS-864]
[6]
  intracellular level of DAPD: low levels
  intracellular level of DAPD-TP / phosphorylated forms of DAPD: very high levels
  intracellular level of DXG-TP: low levels
[6]; LC/MS/MS
  ratio of DXG-TP (6-OH) to DAPD-TP (6-NH2): 2 to 98

## CC1(O)C(O)[C@@H](CO)O[C@H]1n1cnc2c(N)nc(N)nc21 (stereo partly drawn) [drawing 50]
[3]; human, 14 day, 1 μM
  % Inhibition nuclear DNA: 22%
[3]; human, 14 day, 10 μM
  % Inhibition nuclear DNA: 46%
[3]; human, 14 day, 50 μM
  % Inhibition nuclear DNA: 21%
[4]; human, 14 day, 1 μM
  % Inhibition MtDNA: < 1%
[4]; human, 14 day, 10 μM
  % Inhibition MtDNA: < 1%
[4]; human, 14 day, 50 μM
  % Inhibition MtDNA: < 1%

## CCOC(=O)[C@H](C)NP(=O)(OCC1O[C@@H](n2cnc3c(N)nc(N)nc32)C(C)(O)C1O)Oc1ccccc1 (stereo in doubt) [Compound 8a, (2S)-ethyl 2-((((2S,3R,4R,5R)-5-(2,6-diamino-9H-purin-9-yl)-3,4-dihydroxy-4-methyltetrahydrofuran-2-yl)methoxy)(phenoxy)phosphorylamino)propanoate]
[4]; up to 50 μM, HepG2 Hepatoma cells, 14 day assay, summary also covers nuclear DNA and lactic acid
  effect on nuclear or mitochondrial DNA or lactic acid production: no significant effect
[5]
  intracellular guanine analog triphosphate: also detected
  intracellular level of 2,6-diamino-2′-C-Me purine triphosphate: unexpectedly high levels

## CC1(O)C(O)[C@@H](CO)O[C@H]1n1cnc2c(N)nc(N)nc21 (stereo partly drawn) [drawing 55]
[1]; [7]
  CC50 at 5 day: > 10 µM
[2]; [8]
  EC50: 3700 nM
[2]; Huh-7, 120 h, HCV Replicon (Huh7), five days incubation, read-out: EC90
  EC90: 11 µM

## Nc1nc(N)c2ncn([C@H]3CO[C@@H](CO)O3)c2n1 [DAPD]
[6]
  intracellular level of DAPD: Low levels
  intracellular level of DAPD-TP / phosphorylated forms of DAPD: no phosphorylated forms of DAPD were detected
  intracellular level of DXG-TP: high levels

## CCOC(=O)CCc1ccccc1O[P@](=O)(N[C@@H](C)C(=O)OCC)OC[C@H]1O[C@@H](n2cnc3c(N)nc(N)nc32)C(C)(O)C1O (stereo partly drawn)
[1]
  CC50 at 5 day: > 3 µM
[2]; Huh-7, 120 h
  EC50: 2300 nM
  EC90: 7.7 µM

## CCOC(=O)CCc1ccccc1O[P@@](=O)(N[C@@H](C)C(=O)OCC)OC[C@H]1O[C@@H](n2cnc3c(N)nc(N)nc32)C(C)(O)C1O (stereo partly drawn)
[1]
  CC50 at 5 day: > 10 µM
[2]; Huh-7, 120 h
  EC50: 200 nM
  EC90: 0.7 µM

## CCOC(=O)CCc1ccccc1OP(=O)(N[C@@H](C)C(=O)OCC)OC[C@H]1O[C@@H](n2cnc3c(N)nc(N)nc32)C(C)(F)C1O (stereo partly drawn)
[1]
  CC50 at 5 day: > 10 µM
[2]; Huh-7, 120 h
  EC50: 700 nM
  EC90: 2.9 µM

## CCOC(=O)[C@H](C)NP(=O)(OC[C@H]1O[C@@H](n2cnc3c(N)nc(N)nc32)C(C)(O)C1O)Oc1ccccc1 (stereo partly drawn) [drawing 56]
[1]
  CC50 at 5 day: > 10 µM
[2]; Huh-7, 120 h
  EC50: 1300 nM
  EC90: 4.9 µM
